Drawing on US11739098B2 (BRISTOL-MYERS SQUIBB COMPANY, priority 2017, dated 2023), this text covers IC50 for eleven molecules.

Each structure is given as a SMILES string. Bounds are passed on as bounds.

In general, IC50 refers to the concentration needed to halve the response being measured. High values mean weaker potency in that assay, low ones greater potency in that assay.

What all share (type): cell-based
In one test the target is T1, human TLR7 (Homo sapiens, UniProt Q9NYK1).
T1 construct: host or cells: HEK-Blue cells (HEK293-derived reporter line)
T1 sequence (Q9NYK1 27-1049): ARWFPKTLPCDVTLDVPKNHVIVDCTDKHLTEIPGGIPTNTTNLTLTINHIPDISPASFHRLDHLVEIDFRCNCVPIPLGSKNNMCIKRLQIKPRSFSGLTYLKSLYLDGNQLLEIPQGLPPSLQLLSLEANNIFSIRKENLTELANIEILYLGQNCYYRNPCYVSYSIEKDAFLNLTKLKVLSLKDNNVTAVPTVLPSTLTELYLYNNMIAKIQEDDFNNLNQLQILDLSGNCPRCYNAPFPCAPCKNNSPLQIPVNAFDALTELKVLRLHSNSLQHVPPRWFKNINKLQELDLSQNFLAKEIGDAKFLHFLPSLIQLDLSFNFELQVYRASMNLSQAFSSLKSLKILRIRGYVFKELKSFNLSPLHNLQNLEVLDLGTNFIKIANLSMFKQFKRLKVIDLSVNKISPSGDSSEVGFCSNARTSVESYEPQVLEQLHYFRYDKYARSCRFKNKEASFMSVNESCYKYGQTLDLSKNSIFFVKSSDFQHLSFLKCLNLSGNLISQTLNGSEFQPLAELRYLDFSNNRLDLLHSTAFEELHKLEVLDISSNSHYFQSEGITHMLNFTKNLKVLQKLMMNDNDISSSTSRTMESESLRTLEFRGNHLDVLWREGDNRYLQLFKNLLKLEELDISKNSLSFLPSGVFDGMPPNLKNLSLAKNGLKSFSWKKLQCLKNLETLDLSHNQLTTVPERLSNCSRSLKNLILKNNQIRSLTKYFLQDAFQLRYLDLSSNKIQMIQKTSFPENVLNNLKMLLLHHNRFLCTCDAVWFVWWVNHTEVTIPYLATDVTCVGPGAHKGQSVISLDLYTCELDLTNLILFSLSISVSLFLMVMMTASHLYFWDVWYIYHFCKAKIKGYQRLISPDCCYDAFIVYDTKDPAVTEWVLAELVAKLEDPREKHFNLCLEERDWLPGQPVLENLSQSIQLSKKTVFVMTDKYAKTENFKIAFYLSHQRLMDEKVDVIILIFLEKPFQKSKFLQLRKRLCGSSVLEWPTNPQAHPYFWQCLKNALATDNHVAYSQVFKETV
In words: TLR7 inhibition reporter assay (HEK-Blue cells, SEAP reporter, gardiquimod stimulation). The following applies: HEK-Blue cells overexpressing human TLR7, SEAP reporter, gardiquimod 7.5 μM. As to the method:
(§1) TLR7/8/9 Inhibition Reporter Assays
(§2) HEK-Blue™-cells (Invivogen) overexpressing human TLR7, TLR8 or TLR9 receptors were used for screening inhibitors of these receptors using an inducible SEAP (secreted embryonic alkaline phosphatase) reporter gene under the control of the IFN-β minimal promoter fused to five NF-κB and AP-1-binding sites. Briefly, cells are seeded into Greiner 384 well plates (15000 cells per well for TLR7, 20,000 for TLR8 and 25,000 for TLR9) and then treated with test compounds in DMSO to yield a final dose response concentration range of 0.05 nM-50 μM. After a 30 minute compound pre-treatment at room temperature, the cells are then stimulated with a TLR7 ligand (gardiquimod at a final concentration of 7.5 μM), TLR8 ligand (R848 at a final concentration of 15.9 μM) or TLR9 ligand (ODN2006 at a final concentration of 5 nM) to activate NF-κB and AP-1 which induce the production of SLAP After a 22 hour incubation at […], SLAP levels are determined with the addition of HLK-Blue™ Detection reagent (Invivogen), a cell culture medium that allows for detection of SLAP, according to manufacturer's specifications. The percent inhibition is determined as the […] in the HEK-Blue signal present in wells treated with agonist plus DMSO alone compared to wells treated with a known inhibitor.

A further test concerns the target T2, human TLR8 (Homo sapiens, UniProt Q9NR97).
T2 construct: host or cells: HEK-Blue cells (HEK293-derived reporter line)
T2 sequence (Q9NR97 27-1041): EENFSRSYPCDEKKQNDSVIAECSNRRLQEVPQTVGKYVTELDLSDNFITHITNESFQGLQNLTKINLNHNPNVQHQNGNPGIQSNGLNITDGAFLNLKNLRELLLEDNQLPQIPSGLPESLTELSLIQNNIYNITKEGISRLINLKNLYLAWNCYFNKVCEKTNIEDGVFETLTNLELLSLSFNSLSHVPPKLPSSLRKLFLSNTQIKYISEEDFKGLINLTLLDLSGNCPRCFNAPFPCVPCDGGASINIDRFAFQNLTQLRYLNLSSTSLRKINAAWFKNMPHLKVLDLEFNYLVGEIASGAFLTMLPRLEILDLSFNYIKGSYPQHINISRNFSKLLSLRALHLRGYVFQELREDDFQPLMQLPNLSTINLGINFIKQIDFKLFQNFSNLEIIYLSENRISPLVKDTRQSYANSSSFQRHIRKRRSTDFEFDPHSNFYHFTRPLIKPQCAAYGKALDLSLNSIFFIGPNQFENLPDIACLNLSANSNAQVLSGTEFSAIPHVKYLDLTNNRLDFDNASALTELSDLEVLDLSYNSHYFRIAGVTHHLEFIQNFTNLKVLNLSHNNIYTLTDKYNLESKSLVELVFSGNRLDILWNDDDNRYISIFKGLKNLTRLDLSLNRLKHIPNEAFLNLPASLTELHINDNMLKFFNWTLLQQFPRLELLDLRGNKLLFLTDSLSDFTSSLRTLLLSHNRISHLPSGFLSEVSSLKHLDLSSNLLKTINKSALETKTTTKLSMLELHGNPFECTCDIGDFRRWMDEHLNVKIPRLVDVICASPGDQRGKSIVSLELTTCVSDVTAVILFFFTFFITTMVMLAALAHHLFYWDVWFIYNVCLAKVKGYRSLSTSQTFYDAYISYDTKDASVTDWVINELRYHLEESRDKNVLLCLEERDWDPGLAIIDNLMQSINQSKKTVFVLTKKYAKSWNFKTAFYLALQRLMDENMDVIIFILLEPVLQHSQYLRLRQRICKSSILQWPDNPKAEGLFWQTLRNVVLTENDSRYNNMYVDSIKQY
Briefly: TLR8 inhibition reporter assay (HEK-Blue cells, SEAP reporter, R848 stimulation). The following applies: HEK-Blue cells overexpressing human TLR8, SEAP reporter, R848 15.9 μM. As to the method: as §1, §2
A general note: Reporter assays use an easily measured gene product as a stand-in for the process of interest.

Another test addresses T3, human TLR9 (Homo sapiens, UniProt Q9NR96).
T3 construct: host or cells: HEK-Blue cells (HEK293-derived reporter line)
T3 sequence (Q9NR96 26-1032): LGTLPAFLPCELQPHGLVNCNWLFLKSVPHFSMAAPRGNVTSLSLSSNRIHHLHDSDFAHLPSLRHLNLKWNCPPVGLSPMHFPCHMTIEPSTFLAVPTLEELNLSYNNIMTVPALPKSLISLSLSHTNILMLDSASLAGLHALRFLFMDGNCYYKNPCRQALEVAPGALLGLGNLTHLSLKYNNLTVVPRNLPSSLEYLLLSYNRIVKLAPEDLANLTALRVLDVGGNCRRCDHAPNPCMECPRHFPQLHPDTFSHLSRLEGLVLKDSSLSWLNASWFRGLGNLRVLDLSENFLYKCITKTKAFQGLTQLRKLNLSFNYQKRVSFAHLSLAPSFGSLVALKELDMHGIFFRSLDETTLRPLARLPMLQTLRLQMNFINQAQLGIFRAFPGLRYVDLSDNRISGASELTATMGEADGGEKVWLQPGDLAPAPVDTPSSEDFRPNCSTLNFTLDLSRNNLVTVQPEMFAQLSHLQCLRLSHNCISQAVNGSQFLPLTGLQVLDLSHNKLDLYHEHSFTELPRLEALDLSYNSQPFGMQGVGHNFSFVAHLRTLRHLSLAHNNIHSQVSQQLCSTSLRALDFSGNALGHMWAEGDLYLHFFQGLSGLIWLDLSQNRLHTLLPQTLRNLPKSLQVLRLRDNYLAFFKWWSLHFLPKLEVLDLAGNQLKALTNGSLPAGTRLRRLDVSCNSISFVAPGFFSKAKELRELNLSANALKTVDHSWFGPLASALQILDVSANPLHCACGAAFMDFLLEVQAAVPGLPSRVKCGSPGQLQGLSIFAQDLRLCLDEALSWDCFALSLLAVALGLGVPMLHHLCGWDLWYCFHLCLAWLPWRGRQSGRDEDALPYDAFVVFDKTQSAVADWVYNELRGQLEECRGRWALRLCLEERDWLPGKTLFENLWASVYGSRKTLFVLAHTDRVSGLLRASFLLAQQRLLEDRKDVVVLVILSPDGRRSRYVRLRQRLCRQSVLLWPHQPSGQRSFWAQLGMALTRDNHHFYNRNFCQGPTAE
Briefly: TLR9 inhibition reporter assay (HEK-Blue cells, SEAP reporter, ODN2006 stimulation). The following applies: HEK-Blue cells overexpressing human TLR9, SEAP reporter, ODN2006 5 nM. As to the method:
as §1, §2

In the case of `Cc1c(-c2[nH]c3ccc(C4CCN(CC(=O)N(C)C)CC4)cc3c2C(C)C)ccc2c1cnn2C` [Example 382, 2-(4-(2-(1,4-dimethyl-1H-indazol-5-yl)-3-isopropyl-1H-indol-5-yl)piperidin-1-yl)-N,N-dimethylacetamide], the IC50 at human TLR7 is < 0.1 µM; at human TLR8, < 0.1 µM; against human TLR9, 1 to 50 µM.
As for `CNCCN1CCC(c2ccc3[nH]c(-c4ccc5c(c4)OCCN5C)c(C)c3c2)CC1` [Example 673, N-methyl-2-(4-(3-methyl-2-(4-methyl-3,4-dihydro-2H-benzo[b][1,4]oxazin-7-yl)-1H-indol-5-yl)piperidin-1-yl)ethan-1-amine], the IC50 against human TLR7 was > 50 µM; against human TLR8, > 3.13 µM; against human TLR9, 1 to 50 µM.
`Cc1ccnc2[nH]cc(-c3[nH]c4ccc(C5CCN(C6CCOCC6)CC5)cc4c3C(C)C)c12` [Example 690, 3-(3-isopropyl-5-(1-(tetrahydro-2H-pyran-4-yl)piperidin-4-yl)-1H-indol-2-yl)-4-methyl-1H-pyrrolo[2,3-b]pyridine]: the IC50 against human TLR7 is < 0.1 µM; against human TLR8, < 0.1 µM; against human TLR9, 1 to 50 µM.
In the case of `CCOc1cc(-c2[nH]c3ccc(C4CCN(C(=O)CN(C)C)CC4)cc3c2C(C)C)cc2ncnn12` [Example 498, 2-(dimethylamino)-1-(4-(2-(5-ethoxy-[1,2,4]triazolo[1,5-a]pyridin-7-yl)-3-isopropyl-1H-indol-5-yl)piperidin-1-yl)ethan-1-one], the half-inhibitory concentration (IC50) is < 0.1 µM on human TLR7, < 0.1 µM against human TLR8 and 0.1 to 1 µM against human TLR9.
With `Cc1cc(-c2[nH]c3ccc(C4CCNCC4)cc3c2C(C)C)cc2c1oc(=O)n2C` [Example 90, 5-(3-isopropyl-5-(piperidin-4-yl)-1H-indol-2-yl)-3,7-dimethylbenzo[d]oxazol-2(3H)-one], the IC50 is < 0.1 µM against human TLR7, 0.1 to 1 µM on human TLR8 and 1 to 50 µM on human TLR9.
In the same order, the values of `CC(C)c1c(-c2cn3cnnc3c(=O)n2C)[nH]c2ccc(C3CCNCC3)cc12` [Example 237, 6-(3-isopropyl-5-(piperidin-4-yl)-1H-indol-2-yl)-7-methyl-[1,2,4]triazolo[4,3-a]pyrazin-8(7H)-one] are > 3.13 µM, > 3.13 µM and 1 to 50 µM.
For `Cc1cc(-c2[nH]c3ccc(C4CCN(C5CCOCC5)CC4)cc3c2C(C)C)cc2cncn12` [Example 707, 7-(3-isopropyl-5-(1-(tetrahydro-2H-pyran-4-yl)piperidin-4-yl)-1H-indol-2-yl)-5-methylimidazo[1,5-a]pyridine], in that order: < 0.1 µM, < 0.1 µM and 0.1 to 1 µM.
For `CCc1c(-c2ccnc3[nH]ncc23)[nH]c2ccc(C3CCN(CCN)CC3)cc12` [Example 656, 2-(4-(3-ethyl-2-(1H-pyrazolo[3,4-b]pyridin-4-yl)-1H-indol-5-yl)piperidin-1-yl)ethan-1-amine], in that order: < 0.1 µM, < 0.1 µM and 0.1 to 1 µM.
Take `Cc1cc(-c2[nH]c3ccc(C4CCN(C(=O)CN(C)C)CC4)cc3c2C(C)C)cc2cnnn12` [Example 488, 2-(dimethylamino)-1-(4-(3-isopropyl-2-(7-methyl-[1,2,3]triazolo[1,5-a]pyridin-5-yl)-1H-indol-5-yl)piperidin-1-yl)ethan-1-one]: the IC50 against human TLR7 was < 0.1 µM; at human TLR8, < 0.1 µM; at human TLR9, 1 to 50 µM.
In the case of `Cc1cc2nnnn2cc1-c1[nH]c2ccc(C3CCN(CC(=O)N(C)C)CC3)cc2c1C(C)C` [Example 314, 2-(4-(3-isopropyl-2-(7-methyltetrazolo[1,5-a]pyridin-6-yl)-1H-indol-5-yl)piperidin-1-yl)-N,N-dimethylacetamide], the IC50 against human TLR7 was < 0.1 µM; on human TLR8, < 0.1 µM; against human TLR9, 1 to 50 µM.
On to `CCc1c(-c2ccnc3[nH]ncc23)[nH]c2ccc(C3CCN(CC4(N)CC4)CC3)cc12` [Example 657, 1-((4-(3-ethyl-2-(1H-pyrazolo[3,4-b]pyridin-4-yl)-1H-indol-5-yl)piperidin-1-yl)methyl)cyclopropan-1-amine], for which the IC50 at human TLR7 was 0.1 to 1 µM; against human TLR8 it was < 0.1 µM; on human TLR9 it was 0.1 to 1 µM.
